Measurements as given in ChEMBL document CHEMBL3430912, “GSK Tres Cantos Anti-Kinetoplastid Screening (TCAKS) Data”.

What was measured:
Trypanosoma cruzi [1] = assay: GSK_TCAKS: pIC50 Trypanosoma cruzi viability assay using beta-GAL activity. This assay was run at single shot at 5uM compound concentration per well. The biological reagents consisted of NIH-3T3 host cells and trypomastigotes parasitic cells; both cell types were set to a 3.3 * 10^5 cells/mL dilution in assay DMEM by means of a CASY cell counter device using a 60um capillary. 6 uL of the mixture were dispensed per well (about 1 * 10^3 host-cells and 1 * 10^3 parasites) with a Multidrop Combi dispenser. […] In all wells, the percentage of DMSO never exceeded 0.5%. Plates incubated for four days at 37C, 5% CO2. The substrate used for the assay fluorescence intensity (FLINT) readout was resorufin-beta-D-galactopiranoside (Sigma-Aldrich) at 5uM per well. It was diluted in PBS supplemented with the soft detergent Igepal (Fluka).; type: functional, organism-based, Mus musculus; settings: Tulahuen, NIH3T3
Leishmania donovani [2] = assay: GSK_TCAKS: pIC50 Leishmania donovani viability assay using fluorescence intensity. Assay plates (1536-well) were prepared by adding 30nL per well of compound. For single shot assay, the final compound concentration was 5uM. […] Briefly, eGFP LdBOB axenic amastigotes were harvested, fixed and counted in a CASY cell counter (Roche-Applied Science). A final concentration of 1.5 * 10^5 cells per well were prepared in amastigote media containing 500 U/mL penicillin/streptomycin (Invitrogen) and 6uL was dispensed to each experimental well using a Multidrop Combi dispenser (Thermo Scientific). 6uL of assay media was dispensed to control columns used as reference for 100% compound response. Following incubation for 72 h at 37C, 5% CO2, 2 uL of resazurin was added to each well at a final concentration of 0.5 mM in phosphate buffered saline (PBS) with IGEPAL (Sigma-Aldrich), 0.05% (v/v).; type: functional, organism-based
Leishmania donovani [3] = assay: (§1) GSK_TCAKS: pIC50 Leishmania donovani Imaging: THP-1 Host Macrophages. Assay plates (384-well) were prepared by adding 250nL of compound to each well. For single shot assay, the final compound concentration was 5 uM. […] Automated image analysis was performed with a script developed on Acapella High Content Imaging and Analysis Software (PerkinElmer). Output: THP-1 cell count were reported for each well.; type: functional, organism-based, Homo sapiens
Leishmania donovani [4] = assay: as §1, with “Infected” for “THP-1 Host”, “Percent of infected macrophage cells” for “THP-1 cell count”; type: functional, organism-based, Homo sapiens; settings: THP-1
[5] = test system: Trypanosoma brucei brucei; assay: GSK_TCAKS: pIC50 Trypanosoma brucei viability assay using fluorescence intensity. Assay plates (1536-well) were prepared by dispensing 25nL of compound solution per well using an Echo acoustic dispenser (Labcyte).; type: functional, organism-based; settings: Lister 427, 2 h
Leishmania donovani [6] = assay: as §1, with “Amastigotes/Macrophages.” for “THP-1 Host Macrophages.”, “Average number of amastigotes per macrophage” for “THP-1”, “cell” for “cell count”; type: functional, organism-based, Homo sapiens; settings: THP-1
Trypanosoma cruzi [7] = assay: (§2) GSK_TCAKS: pIC50 Trypanosoma cruzi Imaging: Infected Cells. […] Cells were then washed once with PBS before infection. T. cruzi trypomastigotes, collected at days 5 to 8 after infection from LLC-MK2 parasite infected cultures, were allowed to swim out for 4h at 37C from a centrifuged pellet (2,500 rpm/10 min/room temperature). Trypomastigotes were then collected and counted in a CASY Cell Counter. Trypomastigotes, in supplemented DMEM, were added to H9c2 cultures in a multiplicity of infection of 1 and incubated for 18 h. Cells were washed once with PBS before incubation of the infected H9c2 monolayer with trypsin (Life-Technologies) to detach cells from the flask. Cells were counted in a CASY Cell Counter using a 150 um capillary and their density set at 5 * 10^4 cells per mL in supplemented assay DMEM. Infected H9c2 were dispensed into 384-well poly-lysine coated assay plates at 50uL per well using a Multidrop Combi dispenser. After seeding them, the plates were incubated at 37C, 5% CO2 for 72h. Cultures were then fixed and stained by addition of 50 uL of a solution containing 8% formaldehyde and 4 uM DRAQ5 DNA dye (BioStatus, UK) per well. […] Five images were collected per well for reliable statistical analysis. Automated image analysis was performed with a script developed on Acapella High Content Imaging and Analysis Software (PerkinElmer). Output: percentage of infected cells per well as a second infection marker.; type: functional, organism-based, Rattus norvegicus; settings: H9c2, 4 h
Trypanosoma cruzi [8] = assay: as §2, with “H2C9” for “Trypanosoma cruzi”, “H9c2 Host Cardiomyocytes.” for “Infected Cells.”, “Number” for “percentage”, “H9c2 Host Cardiomyocytes nuclei to determine drug-related cytotoxicity.” for “infected cells per well as a second infection marker.”; type: functional, organism-based, Rattus norvegicus; settings: H9c2, 4 h
Trypanosoma cruzi [9] = assay: GSK_TCAKS: pIC50 Trypanosoma cruzi Imaging: Amastigotes/Cell. […] Cells were then washed once with PBS before infection. T. cruzi trypomastigotes, collected at days 5 to 8 after infection from LLC-MK2 parasite infected cultures, were allowed to swim out for 4h at 37C from a centrifuged pellet (2,500 rpm/10 min/room temperature). Trypomastigotes were then collected and counted in a CASY Cell Counter. Trypomastigotes, in supplemented DMEM, were added to H9c2 cultures in a multiplicity of infection of 1 and incubated for 18 h. Cells were washed once with PBS before incubation of the infected H9c2 monolayer with trypsin (Life-Technologies) to detach cells from the flask. Cells were counted in a CASY Cell Counter using a 150 um capillary and their density set at 5 * 10^4 cells per mL in supplemented assay DMEM. Infected H9c2 were dispensed into 384-well poly-lysine coated assay plates at 50uL per well using a Multidrop Combi dispenser. After seeding them, the plates were incubated at 37C, 5% CO2 for 72h. Cultures were then fixed and stained by addition of 50 uL of a solution containing 8% formaldehyde and 4 uM DRAQ5 DNA dye (BioStatus, UK) per well. […] Five images were collected per well for reliable statistical analysis. Automated image analysis was performed with a script developed on Acapella High Content Imaging and Analysis Software (PerkinElmer). Output: number of amastigotes per cell as infection level measurement.; type: functional, organism-based, Rattus norvegicus; settings: H9c2, 4 h
[10] = GSK_TCAKS: pIC50 HepG2 human cell line viability assay using luminiscence. […] Seeding density was checked to ensure that new mono-layers were not more than 50% confluent at the time of harvesting. Cell suspension was added to 500 mL of the same medium at a final density of 1.2 * 10^5 cells/mL. This cell suspension was dispensed (25 uL, 3000 cells per well) into 384-well clear-bottom plates using a Multidrop Combi dispenser. Prior to addition of the cell suspension, the screening compounds (250 nL) were pre-dispensed into the plates with an Echo liquid handler. Plates were incubated for 48 h at 37C, 5% CO2. After incubation, plates equilibrated at room temperature for 30 min before proceeding to develop the luminescent signal. The signal developer, CellTiter-Glo Reagent, was allowed to equilibrate at room temperature for 30 min and added to the plates (25uL per well) using a Multidrop Combi dispenser. Plates were left for 10 min at room temperature for stabilization and then read using a ViewLux.; type: toxicity, cell-based
[11] = biological target: Sterol 14-alpha demethylase (Trypanosoma cruzi (strain CL Brener), UniProt Q7Z1V1); assay: GSK_TCAKS: pIC50 CYP51 from Trypanosoma cruzi.; type: functional
Sterol 14-alpha demethylase, sequence (Q7Z1V1 whole entry): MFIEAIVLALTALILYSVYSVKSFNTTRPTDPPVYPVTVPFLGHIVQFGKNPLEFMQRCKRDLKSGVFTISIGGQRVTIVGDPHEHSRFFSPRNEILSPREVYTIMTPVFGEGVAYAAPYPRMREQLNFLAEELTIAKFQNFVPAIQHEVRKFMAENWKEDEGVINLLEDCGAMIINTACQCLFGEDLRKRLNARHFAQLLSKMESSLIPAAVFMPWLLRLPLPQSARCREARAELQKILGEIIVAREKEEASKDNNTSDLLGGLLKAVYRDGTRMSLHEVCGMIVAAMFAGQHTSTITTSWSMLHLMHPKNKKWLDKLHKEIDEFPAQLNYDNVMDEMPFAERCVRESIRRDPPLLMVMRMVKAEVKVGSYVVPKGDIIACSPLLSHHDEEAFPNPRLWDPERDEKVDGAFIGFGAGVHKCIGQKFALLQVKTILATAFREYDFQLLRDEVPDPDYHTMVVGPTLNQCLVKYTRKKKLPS

[12] = test system: Trypanosoma brucei brucei; assay: GSK_TCAKS: pIC50 Trypanosoma brucei viability assay using luminiscence. Assay plates (1536-well) were prepared. T. brucei cultures were harvested and counted in a CASY cell counter. A parasite suspension was prepared at a final concentration of 5 * 10^4 cells/mL in complete HMI9 medium and 6uL was dispensed to all wells containing compounds using a Multidrop Combi dispenser. 6uL of HMI9 media with 0.4% DMSO were dispensed to control columns. Plates were incubated for 24 h at 37C, 5% CO2 then tempered for 10 min at room temperature. ATP content was quantified by adding 4 uL of CellTiter-Glo Reagent (Promega) according to the manufacturer's instructions. Luminescence was measured using a ViewLux.; type: functional, organism-based; settings: Lister 427, CASY

SMILES	IC50 (Trypanosoma cruzi [1]) [µM]	IC50 (Leishmania donovani [2]) [µM]	IC50 (Leishmania donovani [3]) [µM]	IC50 (Leishmania donovani [4]) [µM]	IC50 [5] [µM]	IC50 (Leishmania donovani [6]) [µM]	IC50 (Trypanosoma cruzi [7]) [µM]	IC50 (Trypanosoma cruzi [8]) [µM]	IC50 (Trypanosoma cruzi [9]) [µM]	IC50 at 48 h [10] [µM]	IC50 [11] [µM]	IC50 [12] [µM]
O=C(NCCc1csc(-c2ccc(F)cc2)n1)c1ccco1	2.24	> 50.1	> 50.1	> 50.1	0.398	> 50.1	1.58	> 50.1	1.26	> 100	> 100	0.501
Cc1nn(-c2nc(N)nc(-c3ccccn3)n2)c(N)c1-c1ccccc1	3.98	5.01	20	3.16	2	2	5.01	12.6	1.26	63.1	> 100	6.31
Nc1nc(-c2ccccn2)nc(-n2nc(-c3ccccc3)cc2N)n1	0.501	2	10	0.794	1	0.794	2.51	2	0.316	10	> 100	3.16
CC(C)(C)C(=O)NCCc1csc(-c2ccc(F)cc2)n1	3.55	> 50.1	> 50.1	> 50.1	0.631	> 50.1	3.16	> 50.1	2.51	> 100	79.4	0.794
COCc1cnc2c(c1SCc1c(F)cccc1Cl)c(=O)n(C)c(=O)n2C	> 50.1	3.98	> 50.1	5.01	3.98	5.01	3.98	> 50.1	2.51	> 100	25.1	> 39.8
CNC(=O)C1Cc2ccccc2N1C(=O)COc1cccc(OC)c1 (stereo not drawn)	> 50.1	> 50.1	> 50.1	> 50.1	0.631	> 50.1	> 50.1	> 50.1	> 50.1	> 100	100	1
CCOc1ccc(OCC(=O)N2c3ccccc3CC2C(=O)NC)cc1 (stereo not drawn)	> 50.1	> 50.1	> 50.1	> 50.1	0.501	> 50.1	> 50.1	> 50.1	> 50.1	> 100	> 100	0.794
CNC(=O)C1Cc2ccccc2N1C(=O)Cc1ccccc1 (stereo not drawn)	> 50.1	> 50.1	> 50.1	> 50.1	0.631	> 50.1	> 50.1	> 50.1	> 50.1	> 100	> 100	1
CNC(=O)C1Cc2ccccc2N1C(=O)Cc1ccc(OC)cc1 (stereo not drawn)	> 50.1	> 50.1	7.94	7.94	0.398	12.6	> 50.1	> 50.1	> 50.1	> 100	> 100	0.501
